One compound from patent US20190151289A1, “Identification of Small Molecule Inhibitors of Jumonji AT-Rich Interactive Domain 1A (JARID1A) Histone Demethylase” (YALE UNIVERSITY, priority 2016, published 2019) can be followed below.

In one experiment the target is T1, KDM5C (Homo sapiens, UniProt P41229).
T1 construct: FLAG; made in house
Nature of the experiment: AlphaScreen KDM5C demethylation assay. Format: biochemical. As to the method:
Histone demethylase assays were performed using previously described methods (Sayegh et al., 2013, J. Biol. Chem. 9408-9417), with the exception of all enzyme reactions containing 125 μM α-KG. Enzymes were used at the following approximate concentrations in validation experiments, chosen based on their activity in AlphaScreen assays: 19 nM FLAG-KDM5A, 15 nM FLAG-KDM5B, 6 nM FLAG-KDM5C, 29 nM His-FLAG-KDM6A, and 16 nM FLAG-KDM6B. 24 nM FLAG-KDM5A was used for Km determination experiments. Reactions were carried out for 1 hour, or were stopped by addition of 30 mM EDTA every 5 minutes for determining enzyme kinetics. Km values were calculated using the Michaelis-Menten non-linear regression analysis on GraphPad Prism 6.0 software. The concentration of DMSO in demethylation reactions was 0.05%. For reactions with catalase, catalase (Sigma C30) or an equal volume of dilution buffer was added to the peptide-containing buffer before addition of the demethylase. The final concentration of catalase in the reactions was 0.01 mg/ml.
The AlphaScreen general IgG (protein A) detection kit from PerkinElmer Life Sciences was used as described previously (Sayegh et al., 2013, J. Biol. Chem. 9408-9417). The luminescence emission was recorded at 570 nm using the AlphaScreen optic module on a Pherastar (BMG Labtech) or Envision (PerkinElmer Life Sciences) microplate reader.

In experiment [1] the test system is H3K4 methylation in HeLa cells. Nature of the experiment: Western blot of global H3K4 methylation, HeLa. Format: cell-based, human. As to the method:
(§1) Sf21 insect cells were cultured at 27° C. in Grace's medium (Gibco) with 10% fetal bovine serum (FBS) and 1% penicillin/streptomycin. HeLa cells were cultured in DMEM (Gibco) with 10% FBS and 1% penicillin/streptomycin. BT474, MCF7, MDA-MB-231, PC9 and ZR-75-1 cells were cultured in RPMI 1640 (Gibco) with 10% FBS and 1% penicillin/streptomycin. MCF10A cells were cultured as using previously described methods (Sayegh et al., 2013, J. Biol. Chem. 9408-9417). All human cells were cultured at 37° C. and 5% carbon dioxide. HeLa and MCF7 cell lines were authenticated using short tandem repeat profiling performed at the DNA Analysis Facility on Science Hill at Yale University. All other human cell lines used were within 10 passages after being obtained from the American Type Culture Collection.
Cells were lysed using previously described methods (Lin et al., 2011, Proc. Natl. Acad. Sci. U.S.A. 108:13379-13386). Histones were separated by centrifugation, resuspended in Laemmeli buffer, and sonicated. Protein concentration of cell lysates was measured by Bradford assay. Samples in Laemmeli buffer were boiled 10 minutes at 95° C. and loaded onto 7% (whole cell lysates) or 18% (histones) SDS-PAGE gels. Membranes were blocked in 4% non-fat milk in Tris-buffered saline with 0.05% Tween (TBS-T) and incubated with primary antibodies in the same buffer or 5% bovine serum albumin in TBS-T overnight at 4° C. Membranes were incubated with secondary anti-rabbit or anti-mouse antibodies for one hour at room temperature. Blots were visualized by Thermo Scientific Pierce ECL Western Blotting Substrate (32106) or EMD Millipore Immobilon Western Chemiluminescent HRP Substrate (WBKLS0100) on film. Signal was quantified using ImageJ software.

For experiment [2], the system named is H3K4 methylation in MDA-MB-231 cells. Nature of the experiment: Western blot of global H3K4 methylation, MDA-MB-231. Format: cell-based, human. As to conditions: MDA-MB-231, 72 hr treatment. As to the method: as §1
(§2) Cells were lysed using previously described methods (Lin et al., 2011, Proc. Natl. Acad. Sci. U.S.A. 108:13379-13386). Histones were separated by centrifugation, resuspended in Laemmeli buffer, and sonicated. Protein concentration of cell lysates was measured by Bradford assay. Samples in Laemmeli buffer were boiled 10 minutes at 95° C. and loaded onto 7% (whole cell lysates) or 18% (histones) SDS-PAGE gels. […] Signal was quantified using ImageJ software.
Background: A western blot detects proteins with antibodies after separation by electrophoresis.

The test system of experiment [3] is H3K4 methylation in MCF10A cells. Nature of the experiment: Western blot of global H3K4 methylation, MCF10A. Format: cell-based, human. As to conditions: 72 hr treatment. As to the method: as §1, §2
A further experiment concerns ZR-75-1 cells. Nature of the experiment: WST-1 cell proliferation assay, ZR-75-1. The class given is cell-based, human. As to conditions: ZR-75-1, 5 days of treatment. As to the method: (§3) WST-1 reagent from Roche Applied Sciences (11644807001) was used to measure cell number before drug addition and after 3 or 5 days of growth using previously described methods (Sayegh et al., 2013, J. Biol. Chem. 9408-9417). Cells were seeded in 96-well plates at the following number of cells per well: HeLa (2000), MCF7 (2000), ZR-75-1 (1000), MCF10A (1000), MDA-MB-231(5000). Assays were performed in technical quadruplicates and biological triplicates. DMSO was used at 0.1%. Relative absorbance was calculated by subtracting the average background (media only) signal, dividing by the average signal on day 0, and then dividing by the average day 5/day 0 ratio for the DMSO controls. Significance was calculated by unpaired, two-tailed student's t-test using GraphPad Prism 6.0 software.
(Tetrazolium dyes change colour on reduction, which living cells bring about.)

The next experiment relates to MCF10A cells. Nature of the experiment: WST-1 cell proliferation assay, MCF10A. Format: cell-based, human. The settings on record: 5 days of treatment. As to the method:
as §3

The next experiment deals with PC9 cells. Nature of the experiment: Colony formation assay, PC9 (gefitinib tolerance). Format: cell-based, human. As to the method:
Cells were seeded in 6-well plates at low density: HeLa, MCF7, BT474, and PC9 cells at 1000, 2000, 2500, and 2000 cells/well respectively. Media containing the prescribed drugs or 0.1% DMSO was replaced every 3 days. Trastuzumab was used at 5 μg/ml. Gefitinib was used at 2 μM. YUKA1 was used at 50 or 100 μM. Doxycycline was used at 1 μg/ml for 3 days. After 7-42 days depending on the rate of cell growth, cells were fixed in 4% para-formaldehyde in phosphate-buffered saline for 10 minutes rocking at room temperature. They were incubated in 0.05% crystal violet in double-distilled water for 30 minutes rocking at room temperature, washed with water, and dried 24 hours before photographing. ColonyArea, a plugin for ImageJ software, was used for quantification (Guzman et al., 2014, PloS One 9:e92444). Unpaired, two-tailed student's t-test was used to determine significance using GraphPad Prism 6.0 software.

T1 sequence (P41229 whole entry): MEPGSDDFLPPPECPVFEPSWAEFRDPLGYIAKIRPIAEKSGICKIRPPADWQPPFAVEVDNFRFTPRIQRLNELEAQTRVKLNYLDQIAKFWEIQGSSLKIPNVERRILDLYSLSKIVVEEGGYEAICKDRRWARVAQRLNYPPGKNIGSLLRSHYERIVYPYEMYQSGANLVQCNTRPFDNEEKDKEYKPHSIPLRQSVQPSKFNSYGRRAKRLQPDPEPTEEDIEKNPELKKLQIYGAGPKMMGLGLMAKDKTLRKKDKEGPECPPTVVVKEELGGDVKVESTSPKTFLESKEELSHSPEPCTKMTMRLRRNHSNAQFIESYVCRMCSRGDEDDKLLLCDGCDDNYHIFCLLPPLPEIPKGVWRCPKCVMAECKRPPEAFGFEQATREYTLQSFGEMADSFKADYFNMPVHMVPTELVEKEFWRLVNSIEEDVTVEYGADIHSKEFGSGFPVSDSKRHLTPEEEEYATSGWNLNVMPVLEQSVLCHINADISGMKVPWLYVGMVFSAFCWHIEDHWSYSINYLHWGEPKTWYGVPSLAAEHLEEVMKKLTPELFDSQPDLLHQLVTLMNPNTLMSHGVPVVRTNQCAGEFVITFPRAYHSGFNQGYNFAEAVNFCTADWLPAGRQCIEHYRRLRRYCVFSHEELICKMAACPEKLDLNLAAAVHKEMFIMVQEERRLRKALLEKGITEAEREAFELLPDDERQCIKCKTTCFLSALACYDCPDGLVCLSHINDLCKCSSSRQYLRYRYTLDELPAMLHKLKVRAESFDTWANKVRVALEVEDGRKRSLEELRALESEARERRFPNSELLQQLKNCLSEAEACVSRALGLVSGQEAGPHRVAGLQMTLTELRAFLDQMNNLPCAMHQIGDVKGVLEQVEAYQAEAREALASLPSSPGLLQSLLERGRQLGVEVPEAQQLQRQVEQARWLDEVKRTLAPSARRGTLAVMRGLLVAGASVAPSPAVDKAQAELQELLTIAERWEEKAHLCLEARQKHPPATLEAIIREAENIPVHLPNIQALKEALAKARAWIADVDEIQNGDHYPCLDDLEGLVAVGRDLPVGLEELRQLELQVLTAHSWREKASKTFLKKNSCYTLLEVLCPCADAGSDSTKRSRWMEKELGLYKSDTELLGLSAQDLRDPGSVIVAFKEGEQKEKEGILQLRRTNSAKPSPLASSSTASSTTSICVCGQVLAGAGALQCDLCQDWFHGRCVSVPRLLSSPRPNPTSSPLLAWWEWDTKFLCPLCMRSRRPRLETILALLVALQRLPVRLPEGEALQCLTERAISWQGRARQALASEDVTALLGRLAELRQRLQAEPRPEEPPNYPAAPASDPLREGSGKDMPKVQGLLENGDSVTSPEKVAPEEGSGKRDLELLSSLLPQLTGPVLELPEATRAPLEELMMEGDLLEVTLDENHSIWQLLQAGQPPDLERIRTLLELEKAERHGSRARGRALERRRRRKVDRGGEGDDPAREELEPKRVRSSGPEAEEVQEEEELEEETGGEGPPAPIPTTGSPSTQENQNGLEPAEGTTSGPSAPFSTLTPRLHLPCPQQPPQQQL

Regarding `C=CCOc1c(CNn2cnnc2S)cccc1OC` [YUKA1, 4-([2-(allyloxy)-3-methoxybenzyl]amino)-4H-1,2,4-triazole-3-thiol], the “fold less active against KDM5C (vs KDM5A)” value on KDM5C is around 3 fold. Also, the “H3K4me2 and H3K4me1 levels” value in experiment [1] (HeLa) is given as “increased”. In addition, the “cell activity by global H3K4 methylation changes” value in experiment [1] (HeLa and MCF7 cell lines, western blot) was “cell-active”. Besides, the “global H3K4me3 levels” value in experiment [1] (HeLa, 48 hour treatment) was “dose-dependent increase”. In addition, the H3K4 methylation entry in experiment [2] is “only minor changes”. The H3K4 methylation levels entry in experiment [3] is on record as “did not affect H3K4 methylation levels”. In addition, the cell proliferation entry with ZR-75-1 cells is recorded as “decreased cell proliferation during 5 days of treatment in a dose-dependent manner”; in the experiment with MCF10A cells, “did not hinder cell proliferation”. In the experiment with PC9 cells (PC9, compound alone), the “cell growth, compound alone” value was “not significantly affected”. Moreover, the “colony formation under gefitinib vs DMSO control” value in the experiment on PC9 cells (PC9, long-term treatment with 2 μM gefitinib plus compound) was “fewer YUKA1-treated cells formed colonies”.
